The values that follow come from patent US20250019644A1, “Quantitatively Mapping Amino Acid Properties (QMAP) Cell Culture Media” (UNIVERSITY OF IOWA RESEARCH FOUNDATION, priority 2023, published 2025).

Structures are written as SMILES.

One experiment relates to HCT15 cells. The experiment is described as follows: Crystal Violet Cell Cytotoxicity Assay. The experiment is classed as cell-based. To be noted: Homo sapiens, HCT-15; 2 mM, 48 hours, QMAP, compared to QMAP only; read-out: decrease in cell viability. How it is done: HCT15 cells were plated in 1:1 DMEM: QMAP media on a clear 96-well plate. After 18 hours, cells were treated with 200 μl of QMAP (CTRL) or QMAP plus an amino acid (2 mM). Cells were then grown for 48 hours, followed by a live/dead assay using the Crystal Violet Cell Cytotoxicity Assay Kit (BioVision, #K329) according to the manufacturer's directions. Briefly, cells were washed with 200 μl of 1× washing solution and incubated in 50 μl of crystal violet staining solution for 20 minutes. Cells were washed four times with 200 μl of 1× washing solution to remove dead cells. Cells were then incubated in 100 μl of solubilization solution for 20 minutes, and absorbance was measured at 595 nm.
An amino acid screen of all 20 essential and non-essential amino acids was performed to assess the differential effects of amino acids on cancer cell proliferation. Because commercially available cell culture media such as DMEM or RPMI contain variable concentrations of amino acids, a chemically defined, custom minimal media was designed containing all amino acids present at 0.3 mM, referred to as QMAP. HCT15 cells, a colon cancer cell line, were plated in 50:50 DMEM: QMAP and left to attach overnight. […] After 48 hours, cell proliferation was measured by crystal violet dye, which binds to ribose-like molecules such as DNA and assumes dead cells become unattached and are washed away.

A further experiment concerns HCT116 cells. Description: Metabolic profiling of tryptophan metabolite-treated cells, LC-MS. The experiment is classed as cell-based, human. How it is done: […] Cell plates were lyophilized overnight before metabolite extraction. To extract metabolites, 1 ml of an extraction buffer composed of 2:2:1 methanol/acetonitrile/water with internal standards at 1 μg/ml each (D4-Citric Acid, 13C5-Glutamine, 13C5-Glutamic Acid, 13C6-Lysine, 13C5-Methionine, 13C3-Serine, D4-Succinic Acid, 13C11-Tryptophan, and D8-Valine; Cambridge Isotope Laboratories) was added to the lyophilized cell samples. Cells were scraped for 20 seconds and collected into Eppendorf tubes, flash-frozen in liquid nitrogen, and sonicated for 10 minutes.
Samples were then placed on a rotating platform at −20° C. for 1 hour and centrifuged at 4° C. for 10 minutes at 21,000×g. 300 μL of the cleared metabolite extracts were transferred to fresh tubes for additional processing. An equal volume of each extract was pooled to serve as a quality control (QC) sample, which was analyzed at the beginning, end, and at a regular interval throughout an instrument run. Extraction buffer alone was analyzed as a processing blank sample. Metabolite extracts, the quality control sample, and the processing blank were evaporated to dryness using a speed-vacuum.
Dried extracts were reconstituted in 30 μL of acetonitrile/water (1:1, V/V), vortexed for 10 minutes, and incubated at −20° C. for 18 hours. Samples were then centrifuged at 4° C. for 2 minutes at 21,000×g and the supernatant was transferred to autosampler vials for analysis.
For LC chromatographic separation, 2 μL of reconstituted metabolite extracts, QC sample, and processing blank were run on a Millipore SeQuant ZIC-PHILIC (2.1×150 mm, 5 um particle size, Millipore Sigma #150460) column with a ZIC-PHILIC guard column (20×2.1 mm, Millipore Sigma #150437) attached to a Thermo Vanquish Flex UHPLC. The mobile phase comprised Buffer A [20 mM (NH4)2CO3, 0.1% NH4OH (v/v)] and Buffer B [acetonitrile]. The chromatographic gradient was run at a flow rate of 0.150 mL/min as follows: 0-20 min-linear gradient from 80 to 20% Buffer B; 20-20.5 min-linear gradient from 20 to 80% Buffer B; and 20.5-28 min-hold at 80% Buffer B. Data were acquired using a Thermo Q Exactive MS operated in full-scan, polarity-switching mode with a spray voltage set to 3.0 kV, the heated capillary held at 275° C., and the HESI probe held at 350° C. The sheath gas flow was set to 40 units, the auxiliary gas flow was set to 15 units, and the sweep gas flow was set to 1 unit. MS data acquisition was performed with polarity switching in a range of m/z 70-1,000, with the resolution set at 70,000, the AGC target at 10e6, and the maximum injection time at 200 ms. The QC sample was analyzed at the beginning and end of the LC-MS run and after every 10 samples.
Acquired LC-MS and GC-MS data were processed using the Thermo Scientific TraceFinder software. Targeted metabolites were identified by matching accurate mass and retention times to the University of Iowa Metabolomics Core Facility's in-house library of confirmed standards. After peak area integration by TraceFinder, NOREVA software was applied for signal drift correction on a metabolite-to-metabolite basis using the pooled QC sample that had been analyzed throughout the instrument run. Within individual samples, Post-NOREVA metabolite levels were divided by the total metabolite load (sum of all metabolite values) to equally weight individual metabolites for comparison across samples.

Regarding `N[C@@H](Cc1c[nH]c2ccccc12)C(=O)O` [tryptophan, L-tryptophan], the cytotoxicity at 2000 µM with HCT15 cells is around 50%. The xanthommatin level result in the experiment on HCT116 cells (IFN-γ (50 ng/μL) for 24 hours, then tryptophan 1 mM for 6 hours, QMAP) is reported as “only tryptophan metabolite to significantly increase”. For the same molecule, in the experiment on HCT116 cells (tryptophan supplementation), the 3HK level entry is “not detectable”.
